Experimental data: publication PMC2617778, “Discovery of a Novel Activator of KCNQ1-KCNE1 K^+ Channel Complexes” (PLoS ONE, 2009)

Legend:
Type in all cases: cell-based
[1] = target: T1, Q1/E1 (KCNQ1/KCNE1 complex) (Homo sapiens, UniProt P51787); assay: two-electrode voltage clamp, Xenopus oocytes; details: inhibitor, ND96, pH 7.6, +40 mV, 2 s pulse
T1 construct: with Potassium voltage-gated channel subfamily E member 1

KCNQ4 (Q4) = target: T2, KCNQ4 (Q4) (Homo sapiens, UniProt P56696); assay: two-electrode voltage clamp, Xenopus oocytes; delta gmax on washout, hyperbola fit; details: read-out: Phenylboronic Acid (PBA) / EC50
T2 construct: homotetramer expressed in Xenopus laevis oocytes
T2 sequence (P56696 1-695): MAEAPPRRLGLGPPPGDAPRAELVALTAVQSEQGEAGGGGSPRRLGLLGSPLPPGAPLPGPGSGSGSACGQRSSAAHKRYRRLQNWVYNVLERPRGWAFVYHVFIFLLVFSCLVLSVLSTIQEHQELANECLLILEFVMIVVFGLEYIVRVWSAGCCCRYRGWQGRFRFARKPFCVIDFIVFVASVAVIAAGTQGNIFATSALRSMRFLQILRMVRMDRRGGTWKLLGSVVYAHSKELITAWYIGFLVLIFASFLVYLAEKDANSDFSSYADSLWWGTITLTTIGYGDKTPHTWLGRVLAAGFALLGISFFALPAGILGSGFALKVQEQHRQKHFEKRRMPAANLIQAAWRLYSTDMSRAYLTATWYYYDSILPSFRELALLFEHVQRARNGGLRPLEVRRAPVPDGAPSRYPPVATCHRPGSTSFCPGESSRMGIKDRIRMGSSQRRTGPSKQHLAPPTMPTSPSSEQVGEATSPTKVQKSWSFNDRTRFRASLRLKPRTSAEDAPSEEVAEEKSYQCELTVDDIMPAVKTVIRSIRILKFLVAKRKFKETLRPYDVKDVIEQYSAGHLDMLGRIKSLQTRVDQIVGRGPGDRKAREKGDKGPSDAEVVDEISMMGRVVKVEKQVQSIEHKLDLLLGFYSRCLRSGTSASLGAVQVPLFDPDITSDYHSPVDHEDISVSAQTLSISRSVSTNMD
From the text: two-electrode voltage clamp, Xenopus oocytes; delta gmax on washout, hyperbola fit on KCNQ4 (Q4)

Q2/Q3 (KCNQ2/3) [2] = target: T3, Q2/Q3 (KCNQ2/3) (Homo sapiens, UniProt O43525+O43526); assay: as above; details: read-out: Phenylboronic Acid (PBA) / EC50
T3 construct: heterotetramer; equal mRNA amounts of both subunits in Xenopus laevis oocytes
From the text: two-electrode voltage clamp, Xenopus oocytes; delta gmax on washout, hyperbola fit on Q2/Q3 (KCNQ2/3)

[3] = target: T1, Q1/E1 (KCNQ1/KCNE1 complex); assay: two-electrode voltage clamp, Xenopus oocytes; tail-current Boltzmann fit; details: reversible activator; 10 mM; ND96, pH 7.6
From the text: two-electrode voltage clamp, Xenopus oocytes; tail-current Boltzmann fit on Q1/E1 (KCNQ1/KCNE1 complex)

Q2/Q3 (KCNQ2/3) [4] = target: T3, Q2/Q3 (KCNQ2/3); assay: as above; details: activator; 10 mM; ND96, pH 7.6
From the text: two-electrode voltage clamp, Xenopus oocytes; tail-current Boltzmann fit on Q2/Q3 (KCNQ2/3)

[5] = target: T4, Q1/E3 (KCNQ1/KCNE3 complex) (Homo sapiens, UniProt P51787); assay: as above; details: activator (raises current, no V1/2 shift); 10 mM; KD50 (50 mM K+), pH 7.6
T4 construct: with Potassium voltage-gated channel subfamily E member 3
T4 sequence (P51787 1-676): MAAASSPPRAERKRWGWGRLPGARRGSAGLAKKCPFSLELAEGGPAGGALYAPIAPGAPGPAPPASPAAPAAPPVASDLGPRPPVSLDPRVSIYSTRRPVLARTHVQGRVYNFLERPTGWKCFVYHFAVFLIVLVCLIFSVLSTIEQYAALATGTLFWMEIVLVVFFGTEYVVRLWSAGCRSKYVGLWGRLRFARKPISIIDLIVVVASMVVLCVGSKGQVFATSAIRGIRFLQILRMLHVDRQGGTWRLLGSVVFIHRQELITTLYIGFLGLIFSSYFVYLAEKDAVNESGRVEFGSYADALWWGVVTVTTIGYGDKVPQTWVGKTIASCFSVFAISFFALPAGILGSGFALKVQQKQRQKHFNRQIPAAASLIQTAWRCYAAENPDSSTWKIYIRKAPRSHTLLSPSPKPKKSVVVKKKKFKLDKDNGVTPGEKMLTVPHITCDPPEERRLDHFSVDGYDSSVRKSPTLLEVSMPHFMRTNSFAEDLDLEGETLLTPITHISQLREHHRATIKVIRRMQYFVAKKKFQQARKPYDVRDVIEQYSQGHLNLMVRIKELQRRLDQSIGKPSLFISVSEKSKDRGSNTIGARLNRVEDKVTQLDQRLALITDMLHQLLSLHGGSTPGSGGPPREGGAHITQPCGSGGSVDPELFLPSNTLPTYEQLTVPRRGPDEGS
T4 sequence (Q9Y6H6 1-103 partner): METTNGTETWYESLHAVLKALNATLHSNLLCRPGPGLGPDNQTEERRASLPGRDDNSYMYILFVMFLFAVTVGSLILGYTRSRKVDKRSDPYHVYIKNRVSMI
From the text: two-electrode voltage clamp, Xenopus oocytes; tail-current Boltzmann fit on Q1/E3 (KCNQ1/KCNE3 complex)

T3 sequence (O43526 whole entry): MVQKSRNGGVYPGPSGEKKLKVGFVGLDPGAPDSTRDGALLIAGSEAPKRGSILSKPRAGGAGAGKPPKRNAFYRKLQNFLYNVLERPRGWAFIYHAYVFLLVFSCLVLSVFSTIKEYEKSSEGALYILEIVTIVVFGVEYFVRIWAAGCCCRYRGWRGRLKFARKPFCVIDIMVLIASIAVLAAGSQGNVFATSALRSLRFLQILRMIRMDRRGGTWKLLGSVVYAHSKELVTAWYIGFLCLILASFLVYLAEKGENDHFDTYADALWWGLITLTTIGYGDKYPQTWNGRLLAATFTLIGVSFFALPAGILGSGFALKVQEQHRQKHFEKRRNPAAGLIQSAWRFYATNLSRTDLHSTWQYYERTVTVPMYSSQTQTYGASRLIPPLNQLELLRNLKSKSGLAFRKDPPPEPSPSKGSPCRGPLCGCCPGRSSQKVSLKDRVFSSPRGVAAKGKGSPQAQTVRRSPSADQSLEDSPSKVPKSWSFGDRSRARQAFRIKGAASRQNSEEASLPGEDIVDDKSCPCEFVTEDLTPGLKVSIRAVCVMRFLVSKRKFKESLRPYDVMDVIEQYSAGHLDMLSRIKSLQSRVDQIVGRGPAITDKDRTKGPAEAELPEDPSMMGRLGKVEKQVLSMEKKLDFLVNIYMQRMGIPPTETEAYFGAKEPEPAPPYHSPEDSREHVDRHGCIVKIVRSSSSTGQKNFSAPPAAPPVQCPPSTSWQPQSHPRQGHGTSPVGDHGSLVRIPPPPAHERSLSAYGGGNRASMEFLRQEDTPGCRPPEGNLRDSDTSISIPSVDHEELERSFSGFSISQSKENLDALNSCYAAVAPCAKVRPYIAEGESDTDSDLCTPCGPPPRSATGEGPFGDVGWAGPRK
T3 sequence (O43525 whole entry): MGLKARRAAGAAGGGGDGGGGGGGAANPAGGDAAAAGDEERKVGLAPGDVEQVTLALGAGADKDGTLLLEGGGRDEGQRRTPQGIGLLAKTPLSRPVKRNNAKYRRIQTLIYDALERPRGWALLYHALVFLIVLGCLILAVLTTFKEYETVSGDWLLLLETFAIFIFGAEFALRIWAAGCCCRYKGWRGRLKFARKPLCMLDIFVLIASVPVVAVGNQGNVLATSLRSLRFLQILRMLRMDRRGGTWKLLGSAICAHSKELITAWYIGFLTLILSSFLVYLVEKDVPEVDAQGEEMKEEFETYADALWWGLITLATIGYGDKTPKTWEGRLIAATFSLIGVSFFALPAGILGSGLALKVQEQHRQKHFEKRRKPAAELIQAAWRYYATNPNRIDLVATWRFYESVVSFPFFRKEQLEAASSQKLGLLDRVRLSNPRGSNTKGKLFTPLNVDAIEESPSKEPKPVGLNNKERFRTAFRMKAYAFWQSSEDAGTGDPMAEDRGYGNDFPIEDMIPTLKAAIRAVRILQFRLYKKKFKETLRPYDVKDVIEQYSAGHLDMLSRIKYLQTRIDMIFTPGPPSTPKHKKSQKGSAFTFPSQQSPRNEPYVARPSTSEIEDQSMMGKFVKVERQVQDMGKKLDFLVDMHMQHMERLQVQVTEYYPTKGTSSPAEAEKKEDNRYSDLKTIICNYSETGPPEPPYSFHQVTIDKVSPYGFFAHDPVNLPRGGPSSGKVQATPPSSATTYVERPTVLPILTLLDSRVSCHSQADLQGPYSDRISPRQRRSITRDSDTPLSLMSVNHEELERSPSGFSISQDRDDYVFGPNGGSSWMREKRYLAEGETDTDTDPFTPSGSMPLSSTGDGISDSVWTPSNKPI

Structure (SMILES): O=C(O)c1ccccc1 [benzoic acid]
- reversible inhibition at 10 mM [1]: Perfusion of benzoic acid reversibly inhibited Q1/E1

Structure (SMILES): OB(O)c1ccccc1 [PBA, phenylboronic acid]
- EC50 (KCNQ4 (Q4)): > 10 mM
- EC50 (Q2/Q3 (KCNQ2/3) [2]): 3.7 ± 1.4 mM

Structure (SMILES): OCc1ccccc1 [benzyl alcohol]
- Phenylboronic Acid (PBA) / Δ V1/2 (mV) [3]: −4.4±2.4 mV
- Phenylboronic Acid (PBA) / Δ V1/2 (mV) (Q2/Q3 (KCNQ2/3) [4]): −5.9±2.9 mV
- Phenylboronic Acid (PBA) / Δ V1/2 (mV) [5]: 2.7±4.9 mV
